In brackets after ≈: the same amount, converted by molar mass.
Legend:
[1] = target: T1, L-lactate dehydrogenase A chain (Homo sapiens, UniProt P00338); test: Inhibition of human recombinant carboxy-terminal His-tagged LDHA by UV endpoint assay
[2] = target: T1, L-lactate dehydrogenase A chain; test: Inhibition of human recombinant carboxy-terminal His-tagged LDHA by SPR assay
[3] = target: L-lactate dehydrogenase B chain (Homo sapiens, UniProt P07195)
Description: Inhibition of human recombinant carboxy-terminal His-tagged LDHB by UV endpoint assay

Cytochrome P450 2C9 = Cytochrome P450 2C9 (Homo sapiens, UniProt P11712); test: Inhibition of CYP2C9 (unknown origin); type: ADME
[4] = Clearance in human liver microsomes at 1 uM up to 60 mins by LC-MS/MS analysis; type: ADME
[5] = Fraction unbound in human plasma by LC-MS/MS analysis; type: ADME, cell-free
[6] = Apparent permeability from apical to basolateral side in MDCK cells at 2 uM by LC-MS/MS analysis; type: ADME, cell-based, Canis lupus familiaris; conditions: dog
Cytochrome P450 2D6 = Cytochrome P450 2D6 (Homo sapiens, UniProt P10635); test: Inhibition of CYP2D6 (unknown origin); type: ADME
[7] = Fraction unbound in rat plasma by LC-MS/MS analysis; type: ADME, cell-free
Cytochrome P450 3A4 = Cytochrome P450 3A4 (Homo sapiens, UniProt P08684); test: Inhibition of CYP3A4 (unknown origin); type: ADME
Cytochrome P450 1A2 = target: T2, Cytochrome P450 1A2 (Homo sapiens, UniProt P05177); test: Inhibition of CYP1A2 (unknown origin); type: ADME
T2 sequence (P05177 whole entry): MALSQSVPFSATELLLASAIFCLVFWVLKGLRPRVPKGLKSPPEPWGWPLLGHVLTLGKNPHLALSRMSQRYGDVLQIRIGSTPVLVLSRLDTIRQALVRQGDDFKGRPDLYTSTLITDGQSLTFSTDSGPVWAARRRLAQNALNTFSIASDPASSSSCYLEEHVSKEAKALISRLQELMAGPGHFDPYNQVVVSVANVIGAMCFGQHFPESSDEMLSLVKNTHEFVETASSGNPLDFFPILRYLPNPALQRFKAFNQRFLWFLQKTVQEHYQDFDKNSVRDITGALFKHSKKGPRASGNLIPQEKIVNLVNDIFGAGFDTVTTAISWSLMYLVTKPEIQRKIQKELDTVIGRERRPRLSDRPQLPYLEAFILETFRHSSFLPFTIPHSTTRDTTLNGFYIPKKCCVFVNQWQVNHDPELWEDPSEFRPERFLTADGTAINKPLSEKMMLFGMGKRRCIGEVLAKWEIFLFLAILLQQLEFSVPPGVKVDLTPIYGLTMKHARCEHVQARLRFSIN

[8] = Clearance in Sprague-Dawley rat liver microsomes at 1 uM up to 60 mins by LC-MS/MS analysis; type: ADME
[9] = Aqueous solubility of the compound in PBS buffer at pH 7.2; type: physicochemical
[10] = Dissociation constant, pKa of the compound; type: physicochemical
[11] = target: T1, L-lactate dehydrogenase A chain; test: Inhibition of human recombinant carboxy-terminal His-tagged LDHA by SPR assay in presence of +NADH
[12] = target: T1, L-lactate dehydrogenase A chain; test: Inhibition of human recombinant carboxy-terminal His-tagged LDHA by MS endpoint assay
[13] = target: T3, Malate dehydrogenase, cytoplasmic (Homo sapiens, UniProt P40925); test: Inhibition of human recombinant carboxy-terminal His-tagged MDH-1
T3 sequence (P40925 whole entry): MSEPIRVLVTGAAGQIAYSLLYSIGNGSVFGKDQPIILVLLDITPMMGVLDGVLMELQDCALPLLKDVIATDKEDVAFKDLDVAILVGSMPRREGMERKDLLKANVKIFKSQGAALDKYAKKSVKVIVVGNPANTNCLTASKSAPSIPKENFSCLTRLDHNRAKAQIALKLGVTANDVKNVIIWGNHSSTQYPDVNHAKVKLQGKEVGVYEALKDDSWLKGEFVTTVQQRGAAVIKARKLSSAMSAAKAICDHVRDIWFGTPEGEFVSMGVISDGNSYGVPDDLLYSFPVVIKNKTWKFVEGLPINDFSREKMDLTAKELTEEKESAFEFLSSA

[14] = Oral bioavailability in Sprague-Dawley rat plasma at 2 mg/kg; type: ADME, organism-based
[15] = AUC (0 to 24 hrs) in Sprague-Dawley rat at 2 mg/kg, po; type: ADME, organism-based; parameters: time < 24 hr, dose 2 mg/kg, route oral; conditions: plasma
[16] = target: T4, Malate dehydrogenase, mitochondrial (Homo sapiens, UniProt P40926); test: Inhibition of human recombinant carboxy-terminal His-tagged MDH-2
T4 sequence (P40926 whole entry): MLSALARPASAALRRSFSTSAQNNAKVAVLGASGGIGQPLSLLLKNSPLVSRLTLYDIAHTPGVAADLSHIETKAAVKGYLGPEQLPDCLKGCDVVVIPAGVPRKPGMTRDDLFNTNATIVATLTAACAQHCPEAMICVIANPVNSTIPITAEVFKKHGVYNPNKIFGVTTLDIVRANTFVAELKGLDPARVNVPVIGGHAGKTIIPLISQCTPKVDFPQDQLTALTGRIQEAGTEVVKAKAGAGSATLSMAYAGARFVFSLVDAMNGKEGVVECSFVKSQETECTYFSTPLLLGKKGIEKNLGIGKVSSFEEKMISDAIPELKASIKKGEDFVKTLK

[17] = Clearance in Sprague-Dawley rat plasma at 0.5 mg/kg, iv by LC-MS/MS analysis; type: ADME, organism-based; parameters: dose 0.5 mg/kg, route intravenous
[18] = Half life in Sprague-Dawley rat plasma at 0.5 mg/kg, iv; type: ADME, organism-based; parameters: dose 0.5 mg/kg, route intravenous
[19] = AUC (0 to 24 hrs) in Sprague-Dawley rat at 0.5 mg/kg, iv; type: ADME, organism-based; parameters: time < 24 hr, dose 0.5 mg/kg, route intravenous; conditions: plasma
[20] = Volume of distribution at steady state in Sprague-Dawley rat at 0.5 mg/kg, iv; type: ADME, organism-based; parameters: dose 0.5 mg/kg, route intravenous; conditions: in vivo, read-out: Vdss
[21] = Half life in Sprague-Dawley rat plasma at 2 mg/kg, po; type: ADME, organism-based; parameters: dose 2 mg/kg, route oral

Chain of Cytochrome P450 2C9 (P11712 whole entry): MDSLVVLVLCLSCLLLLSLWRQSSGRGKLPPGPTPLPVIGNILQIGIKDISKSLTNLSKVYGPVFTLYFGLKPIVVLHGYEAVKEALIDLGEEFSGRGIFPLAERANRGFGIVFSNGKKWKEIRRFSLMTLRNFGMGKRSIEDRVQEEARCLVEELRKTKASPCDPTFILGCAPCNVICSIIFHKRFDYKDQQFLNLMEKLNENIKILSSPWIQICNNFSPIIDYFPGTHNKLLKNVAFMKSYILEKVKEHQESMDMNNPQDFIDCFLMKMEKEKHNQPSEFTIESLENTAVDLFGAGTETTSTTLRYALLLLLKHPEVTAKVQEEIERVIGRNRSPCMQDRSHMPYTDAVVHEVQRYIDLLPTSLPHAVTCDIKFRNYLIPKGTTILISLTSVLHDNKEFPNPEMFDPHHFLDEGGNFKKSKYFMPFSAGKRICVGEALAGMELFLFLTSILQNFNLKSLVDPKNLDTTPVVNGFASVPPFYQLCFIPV
Chain of Cytochrome P450 3A4 (P08684 whole entry): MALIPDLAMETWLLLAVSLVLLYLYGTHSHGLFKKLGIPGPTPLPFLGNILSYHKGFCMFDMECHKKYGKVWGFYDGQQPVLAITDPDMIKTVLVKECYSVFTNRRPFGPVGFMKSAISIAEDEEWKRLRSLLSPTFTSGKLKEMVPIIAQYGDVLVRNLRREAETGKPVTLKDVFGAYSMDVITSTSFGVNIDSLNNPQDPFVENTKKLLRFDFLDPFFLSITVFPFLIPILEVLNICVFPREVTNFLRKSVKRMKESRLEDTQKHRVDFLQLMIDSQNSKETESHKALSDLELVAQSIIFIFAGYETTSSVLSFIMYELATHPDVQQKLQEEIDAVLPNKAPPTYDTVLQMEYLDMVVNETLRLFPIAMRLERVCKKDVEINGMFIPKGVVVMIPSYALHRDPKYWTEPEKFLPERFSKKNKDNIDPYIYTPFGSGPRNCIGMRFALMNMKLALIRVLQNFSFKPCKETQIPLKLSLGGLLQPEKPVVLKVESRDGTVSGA
Chain of L-lactate dehydrogenase B chain (P07195 whole entry): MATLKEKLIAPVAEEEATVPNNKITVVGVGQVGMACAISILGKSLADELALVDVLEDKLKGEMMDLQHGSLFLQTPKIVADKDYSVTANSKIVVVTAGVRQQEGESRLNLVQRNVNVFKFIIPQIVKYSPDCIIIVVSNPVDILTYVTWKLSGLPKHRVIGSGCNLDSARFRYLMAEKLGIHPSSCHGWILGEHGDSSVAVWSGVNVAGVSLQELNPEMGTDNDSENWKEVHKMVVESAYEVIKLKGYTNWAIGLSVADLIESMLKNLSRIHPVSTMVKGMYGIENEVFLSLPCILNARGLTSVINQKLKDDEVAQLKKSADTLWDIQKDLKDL
Chain of Cytochrome P450 2D6 (P10635 whole entry): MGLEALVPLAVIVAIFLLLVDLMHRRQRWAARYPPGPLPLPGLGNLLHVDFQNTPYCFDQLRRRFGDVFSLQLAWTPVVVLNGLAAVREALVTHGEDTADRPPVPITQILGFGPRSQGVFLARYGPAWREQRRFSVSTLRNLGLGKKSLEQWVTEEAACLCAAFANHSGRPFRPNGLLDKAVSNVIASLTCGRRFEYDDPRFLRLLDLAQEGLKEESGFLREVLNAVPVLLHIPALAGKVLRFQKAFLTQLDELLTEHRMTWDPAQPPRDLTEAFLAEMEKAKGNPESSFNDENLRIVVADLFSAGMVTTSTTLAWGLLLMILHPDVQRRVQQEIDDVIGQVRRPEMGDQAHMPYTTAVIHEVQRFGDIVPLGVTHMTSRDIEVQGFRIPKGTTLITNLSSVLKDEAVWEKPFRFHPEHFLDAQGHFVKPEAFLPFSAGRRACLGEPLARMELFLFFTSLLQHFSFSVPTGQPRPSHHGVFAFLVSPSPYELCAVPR

SMILES	IC50 [1] [µM]	Kd [2] [µM]	IC50 [3] [µM]	IC50 (Cytochrome P450 2C9) [µM]	CLhep predicted at 1 µM [4] [mL/min/kg]	IC50 (Cytochrome P450 2D6) [µM]	IC50 (Cytochrome P450 3A4) [µM]	IC50 (Cytochrome P450 1A2) [µM]	CLhep predicted at 1 µM [8] [mL/min/kg]	solubility [9] [µM]	further results
O=C1CC(c2cccc(Cl)c2)CC(O)=C1Sc1ccccc1Cl (centres undefined)	5.6	7.1	–	–	–	–	–	–	–	–	–
N#Cc1ccccc1SC1=C(O)CC(c2c(Cl)cccc2C(F)(F)F)CC1=O (centres undefined)	0.64	–	2.8	–	–	–	–	–	–	–	–
O=C1CC(c2ccccc2)CC(O)=C1Sc1ccccc1Cl (centres undefined)	4.6	4.3	–	> 5	3.9	> 5	> 5	> 5	14	147 (≈ 48.6 µg/mL)	fraction unbound [5]: 0.001; Papp A→B at 2 µM [6]: 18 ×10⁻⁶ cm/s; fraction unbound [7]: 0.002
O=C1CC(c2ccccc2)CC(O)=C1Sc1ccccc1[N+](=O)[O-] (centres undefined)	1.7	771	–	–	–	–	–	–	–	–	pKa [10]: 2.63; Kd [11]: 3.5 µM; IC50 [12]: 0.88 µM
N#Cc1ccccc1SC1=C(O)CC(c2ccccc2Cl)CC1=O (centres undefined)	3.1	–	6.6	–	–	–	–	–	–	–	–
Cc1cccc(C)c1C1CC(=O)C(Sc2ccccc2C#N)=C(O)C1 (centres undefined)	2.1	–	7.8	–	–	–	–	–	–	–	–
O=C1CC(c2c(F)cccc2F)CC(O)=C1Sc1ccccc1Cl (centres undefined)	7.4	–	1.3	–	–	–	–	–	–	–	–
N#Cc1ccccc1SC1=C(O)CC(c2cccc(Cl)c2)CC1=O (centres undefined)	6.8	–	> 10	–	–	–	–	–	–	–	–
COc1ccc(C2CC(=O)C(Sc3ccccc3Cl)=C(O)C2)cc1 (centres undefined)	19	13	6.9	–	–	–	–	–	–	–	–
O=C1CC(c2c(Cl)cccc2Cl)CC(O)=C1Sc1ccccc1Cl (centres undefined)	0.87	1.8	–	> 5	14	> 5	> 5	> 5	27	128 (≈ 51.2 µg/mL)	IC50 [13]: > 100 µM; bioavailability [14]: 45%; AUC(0-t) at 24 h [15]: 142 µM·h; IC50 [16]: > 100 µM; fraction unbound [5]: 0.005; Papp A→B at 2 µM [6]: 17 ×10⁻⁶ cm/s; clearance [17]: 0.35 mL/min/kg; fraction unbound [7]: 0.002; half-life [18]: 13.2 h; AUC(0-t) at 24 h [19]: 60.3 µM·h; Vd [20]: 0.39 L; half-life [21]: 10.7 h
N#Cc1ccccc1SC1=C(O)CC(c2c(Cl)cccc2Cl)CC1=O (centres undefined)	0.83	0.43	4.9	> 5	12	> 5	> 5	> 5	24	117 (≈ 45.7 µg/mL)	–
O=C1CC(c2ccc(Cl)cc2)CC(O)=C1Sc1ccccc1Cl (centres undefined)	18	27	–	–	–	–	–	–	–	–	–
N#Cc1ccccc1SC1=C(O)CC(c2ccccc2)CC1=O (centres undefined)	1.6	1.5	–	> 5	1.6	> 5	> 5	> 5	5.2	118 (≈ 37.9 µg/mL)	fraction unbound [5]: 0.001; Papp A→B at 2 µM [6]: 4.1 ×10⁻⁶ cm/s; fraction unbound [7]: 0.01
N#Cc1ccccc1SC1=C(O)CC(c2c(Cl)cccc2Br)CC1=O (centres undefined)	0.45	0.24	2	> 5	15	> 5	> 5	> 5	31	75 (≈ 32.6 µg/mL)	fraction unbound [5]: 0.002; Papp A→B at 2 µM [6]: 14 ×10⁻⁶ cm/s; fraction unbound [7]: 0.005
O=C1CC(c2c(C(F)(F)F)cccc2C(F)(F)F)CC(O)=C1Sc1ccccc1Cl (centres undefined)	15	–	7.4	> 5	18	> 5	> 5	> 5	38	143 (≈ 66.8 µg/mL)	–
O=C1CC(c2c(Cl)cccc2C(F)(F)F)CC(O)=C1Sc1ccccc1Cl (centres undefined)	1	0.5	–	> 5	17	> 5	> 5	> 5	37	117 (≈ 50.7 µg/mL)	–
O=C1CC(c2c(Cl)ccc(Br)c2Cl)CC(O)=C1Sc1ccccc1Cl (centres undefined)	0.5	0.37	> 10	–	–	–	–	–	–	–	–
O=C1CC(c2c(Br)cccc2Br)CC(O)=C1Sc1ccccc1Cl (centres undefined)	0.27	–	15	–	–	–	–	–	–	–	–
O=C1CC(c2c(Cl)cccc2Br)CC(O)=C1Sc1ccccc1Cl (centres undefined)	0.58	0.49	3.4	–	–	–	–	–	–	–	–
Cc1cccc(C)c1C1CC(=O)C(Sc2ccccc2Cl)=C(O)C1 (centres undefined)	2.3	–	1.9	–	–	–	–	–	–	–	–
N#Cc1ccccc1SC1=C(O)CC(c2ccc(Cl)cc2)CC1=O (centres undefined)	17	–	> 10	–	–	–	–	–	–	–	–
O=C1CC(c2ccccc2Cl)CC(O)=C1Sc1ccccc1Cl (centres undefined)	5.6	8.2	–	–	–	–	–	–	–	–	–
O=C1CC(c2c(F)cccc2Cl)CC(O)=C1Sc1ccccc1Cl (centres undefined)	3.7	–	5.3	–	–	–	–	–	–	–	–
